The results in this text go back to patent US10717716B2, “1,3,4-oxadiazole derivative compounds as histone deacetylase 6 inhibitor, and the pharmaceutical composition comprising the same” (Chong Kun Dang Pharmaceutical Corp., priority 2015, dated 2020).

The assay concerns the target T1, human recombinant HDAC6 (Homo sapiens, UniProt Q9UBN7).
T1 construct: purchased Calbiochem 382180
T1 sequence (Q9UBN7 1-1215): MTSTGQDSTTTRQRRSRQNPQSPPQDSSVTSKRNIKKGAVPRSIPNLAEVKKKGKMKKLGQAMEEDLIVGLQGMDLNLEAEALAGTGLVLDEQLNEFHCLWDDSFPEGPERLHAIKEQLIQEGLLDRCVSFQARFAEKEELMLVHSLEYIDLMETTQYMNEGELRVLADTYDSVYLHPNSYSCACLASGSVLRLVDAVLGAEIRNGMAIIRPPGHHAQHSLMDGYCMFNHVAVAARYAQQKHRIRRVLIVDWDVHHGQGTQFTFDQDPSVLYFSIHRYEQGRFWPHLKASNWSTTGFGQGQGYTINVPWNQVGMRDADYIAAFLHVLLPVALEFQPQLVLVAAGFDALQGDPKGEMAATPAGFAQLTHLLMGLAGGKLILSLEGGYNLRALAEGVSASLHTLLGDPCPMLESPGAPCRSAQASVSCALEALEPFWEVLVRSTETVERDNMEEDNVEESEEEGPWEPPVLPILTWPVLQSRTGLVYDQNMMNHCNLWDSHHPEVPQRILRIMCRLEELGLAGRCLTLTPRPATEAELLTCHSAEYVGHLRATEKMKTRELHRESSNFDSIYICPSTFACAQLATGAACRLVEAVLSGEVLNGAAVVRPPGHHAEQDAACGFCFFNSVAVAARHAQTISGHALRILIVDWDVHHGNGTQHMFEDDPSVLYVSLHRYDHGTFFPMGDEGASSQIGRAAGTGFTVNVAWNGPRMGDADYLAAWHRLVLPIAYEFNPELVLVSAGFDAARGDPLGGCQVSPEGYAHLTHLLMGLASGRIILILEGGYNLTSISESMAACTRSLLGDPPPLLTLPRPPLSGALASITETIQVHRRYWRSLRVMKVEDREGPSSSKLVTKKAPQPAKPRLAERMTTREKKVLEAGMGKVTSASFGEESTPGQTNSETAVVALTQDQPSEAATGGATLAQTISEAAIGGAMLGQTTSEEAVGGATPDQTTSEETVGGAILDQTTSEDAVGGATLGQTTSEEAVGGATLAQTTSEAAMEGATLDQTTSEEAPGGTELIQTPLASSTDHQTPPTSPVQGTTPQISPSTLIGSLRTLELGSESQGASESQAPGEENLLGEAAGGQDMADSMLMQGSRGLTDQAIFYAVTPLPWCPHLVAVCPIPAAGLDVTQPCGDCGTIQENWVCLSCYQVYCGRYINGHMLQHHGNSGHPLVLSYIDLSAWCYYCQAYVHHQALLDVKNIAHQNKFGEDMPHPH
The assay can be described thus: HDAC6 enzyme activity inhibition assay (HDAC Fluorimetric Drug Discovery Kit). The class given is biochemical. As to conditions: for HDAC6 selectivity (fold): HDAC6 over HDAC1; for IC50: human recombinant HDAC6, same protocol as HDAC1, read-out: HDAC6. Summed up: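 Human recombinant HDAC1 or HDAC6 (0.3 μg) reacted with 10 μM Fluor de Lys-SIRT1 substrate and 5-fold compound dilutions for 60 min at 30 °C. Developer II added for 30 min, fluorescence read at Ex 360/Em 460; IC50 calculated from the readings.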

Consider `O=C(N1CCC2(CC1)CNC2)N(Cc1ccc(-c2nnc(C(F)(F)F)o2)cc1)c1ccccc1` [Compound 21417, N-phenyl-N-(4-(5-(trifluoromethyl)-1,3,4-oxadiazol-2-yl)benzyl)-2,7-diazaspiro[3.5]nonane-7-carboxamide], for which the “HDAC6 selectivity (fold)” value came out at 143 fold and the IC50 was 70 nM.

With `CC(=O)N1CC2(CCN(C(=O)N(Cc3ccc(-c4nnc(C(F)(F)F)o4)cc3)c3ccccc3)CC2)C1` [Compound 21418, 2-Acetyl-N-phenyl-N-(4-(5-(trifluoromethyl)-1,3,4-oxadiazol-2-yl)benzyl)-2,7-diazaspiro[3.5]nonane-7-carboxamide], the “HDAC6 selectivity (fold)” value came out at 65 fold and the IC50 was determined as 154 nM.

For the compound `CS(=O)(=O)N1CC2(CCN(C(=O)N(Cc3ccc(-c4nnc(C(F)(F)F)o4)cc3)c3ccccc3)CC2)C1` [Compound 21419, 2-(Methylsulfonyl)-N-phenyl-N-(4-(5-(trifluoromethyl)-1,3,4-oxadiazol-2-yl)benzyl)-2,7-diazaspiro[3.5]nonane-7-carboxamide], the “HDAC6 selectivity (fold)” value was 130 fold and the IC50 was 77 nM.

For the compound `CN1CC2(CCN(C(=O)N(Cc3ccc(-c4nnc(C(F)(F)F)o4)cc3)c3ccccc3)CC2)C1` [Compound 21420, 2-Methyl-N-phenyl-N-(4-(5-(trifluoromethyl)-1,3,4-oxadiazol-2-yl)benzyl)-2,7-diazaspiro[3.5]nonane-7-carboxamide], the “HDAC6 selectivity (fold)” value was 143 fold and the IC50 turned out to be 70 nM.

Take `CCN1CC2(CCN(C(=O)N(Cc3ccc(-c4nnc(C(F)(F)F)o4)cc3)c3ccccc3)CC2)C1` [Compound 21421, 2-Ethyl-N-phenyl-N-(4-(5-(trifluoromethyl)-1,3,4-oxadiazol-2-yl)benzyl)-2,7-diazaspiro[3.5]nonane-7-carboxamide]: the “HDAC6 selectivity (fold)” value stood at 149 fold and the IC50 worked out at 67 nM.

For `CC(=O)N1CCCN(C(=O)N(Cc2ccc(-c3nnc(C(F)(F)F)o3)cc2)c2ccccc2)CC1` [Compound 21422, 4-Acetyl-N-phenyl-N-(4-(5-(trifluoromethyl)-1,3,4-oxadiazol-2-yl)benzyl)-1,4-diazepane-1-carboxamide], the “HDAC6 selectivity (fold)” value came out at 95 fold and the IC50 turned out to be 105 nM.

Consider `CN1CCCN(C(=O)N(Cc2ccc(-c3nnc(C(F)F)o3)cc2F)c2ccccc2)CC1` [Compound 21423, N-(4-(5-(difluoromethyl)-1,3,4-oxadiazol-2-yl)-2-fluorobenzyl)-4-methyl-N-phenyl-1,4-diazepane-1-carboxamide], for which the “HDAC6 selectivity (fold)” value was found to be 377 fold and the IC50 amounted to 26.5 nM.

In the case of `O=C(N1CCOCC1)N(Cc1ccc(-c2nnc(C(F)(F)F)o2)cc1)c1ccccn1` [Compound 21424, N-(pyridin-2-yl)-N-(4-(5-(trifluoromethyl)-1,3,4-oxadiazol-2-yl)benzyl)morpholine-4-carboxamide], the “HDAC6 selectivity (fold)” value was determined as 54 fold and the IC50 was found to be 184 nM.

Consider `O=C(N1CCOCC1)N(Cc1ccc(-c2nnc(C(F)(F)F)o2)cc1)c1ncccn1` [Compound 21425, N-(pyrimidin-2-yl)-N-(4-(5-(trifluoromethyl)-1,3,4-oxadiazol-2-yl)benzyl)morpholine-4-carboxamide], for which the “HDAC6 selectivity (fold)” value turned out to be 77 fold and the IC50 worked out at 130 nM.

Turning to `O=C(N1CCOCC1)N(Cc1ccc(-c2nnc(C(F)(F)F)o2)cc1)c1ccc(F)cc1` [Compound 21426, N-(4-fluorophenyl)-N-(4-(5-(trifluoromethyl)-1,3,4-oxadiazol-2-yl)benzyl)morpholine-4-carboxamide], the “HDAC6 selectivity (fold)” value was 20 fold and the IC50 amounted to 489 nM.

As to `O=C(N1CCOCC1)N(Cc1ccc(-c2nnc(C(F)(F)F)o2)cc1)c1cccnc1` [Compound 21427, N-(pyridin-3-yl)-N-(4-(5-(trifluoromethyl)-1,3,4-oxadiazol-2-yl)benzyl)morpholine-4-carboxamide], the “HDAC6 selectivity (fold)” value turned out to be 79 fold and the IC50 is 126 nM.

On to `O=C(N1CCOCC1)N(Cc1ccc(-c2nnc(C(F)(F)F)o2)cc1)c1ccccc1F` [Compound 21428, N-(2-fluorophenyl)-N-(4-(5-(trifluoromethyl)-1,3,4-oxadiazol-2-yl)benzyl)morpholine-4-carboxamide], for which the “HDAC6 selectivity (fold)” value is reported as 75 fold and the IC50 came to 134 nM.

In the case of `O=C(N1CCOCC1)N(Cc1ccc(-c2nnc(C(F)(F)F)o2)cc1Cl)c1ccccc1` [Compound 21429, N-(2-chloro-4-(5-(trifluoromethyl)-1,3,4-oxadiazol-2-yl)benzyl)-N-phenylmorpholine-4-carboxamide], the “HDAC6 selectivity (fold)” value is recorded as 5 fold and the IC50 turned out to be 2080 nM.

Regarding `O=C(N1CCOCC1)N(Cc1c(F)cc(-c2nnc(C(F)(F)F)o2)cc1F)c1ccccc1` [Compound 21431, N-(2,6-difluoro-4-(5-(trifluoromethyl)-1,3,4-oxadiazol-2-yl)benzyl)-N-phenylmorpholine-4-carboxamide], the “HDAC6 selectivity (fold)” value amounted to 39 fold and the IC50 is 256 nM.

For `O=C(N1CCOCC1)N(Cc1c(F)cc(-c2nnc(C(F)F)o2)cc1F)c1ccccc1` [Compound 21432, N-(4-(5-(difluoromethyl)-1,3,4-oxadiazol-2-yl)-2,6-difluorobenzyl)-N-phenylmorpholine-4-carboxamide], the “HDAC6 selectivity (fold)” value amounted to 208 fold and the IC50 amounted to 48 nM.

For the compound `O=C(N1CCS(=O)(=O)CC1)N(Cc1ccc(-c2nnc(C(F)(F)F)o2)cc1)c1ccc(F)cc1F` [Compound 21433, N-(2,4-difluorophenyl)-N-(4-(5-(trifluoromethyl)-1,3,4-oxadiazol-2-yl)benzyl)thiomorpholine-4-carboxamide 1,1-dioxide], the “HDAC6 selectivity (fold)” value was 172 fold and the IC50 was found to be 58 nM.

With `Cc1ccc(N(Cc2ccc(-c3nnc(C(F)(F)F)o3)cc2)C(=O)N2CCS(=O)(=O)CC2)c(F)c1` [Compound 21434, N-(2-fluoro-4-methylphenyl)-N-(4-(5-(trifluoromethyl)-1,3,4-oxadiazol-2-yl)benzyl)thiomorpholine-4-carboxamide 1,1-dioxide], the “HDAC6 selectivity (fold)” value turned out to be 53 fold and the IC50 came to 188 nM.

Regarding `COc1ccccc1N(Cc1ccc(-c2nnc(C(F)(F)F)o2)cc1)C(=O)N1CCS(=O)(=O)CC1` [Compound 21440, N-(2-methoxyphenyl)-N-(4-(5-(trifluoromethyl)-1,3,4-oxadiazol-2-yl)benzyl)thiomorpholine-4-carboxamide 1,1-dioxide], the “HDAC6 selectivity (fold)” value is listed as 37 fold and the IC50 was 267 nM.

Consider `CS(=O)(=O)c1ccc(N(Cc2ccc(-c3nnc(C(F)F)o3)cc2)C(=O)N2CCOCC2)cc1` [Compound 21444, N-(4-(5-(difluoromethyl)-1,3,4-oxadiazol-2-yl)benzyl)-N-(4-(methylsulfonyl)phenyl)morpholine-4-carboxamide], for which the “HDAC6 selectivity (fold)” value is 57 fold and the IC50 was 175 nM.

With `Cc1ccc(N(Cc2ccc(-c3nnc(C(F)(F)F)o3)cc2)C(=O)N2CCS(=O)(=O)CC2)cc1` [Compound 21445, N-(p-tolyl)-N-(4-(5-(trifluoromethyl)-1,3,4-oxadiazol-2-yl)benzyl)thiomorpholine-4-carboxamide 1,1-dioxide], the “HDAC6 selectivity (fold)” value is given as 33 fold and the IC50 amounted to 303 nM.

Take `Cc1ccc(N(Cc2ccc(-c3nnc(C(F)F)o3)cc2)C(=O)N2CCS(=O)(=O)CC2)cc1` [Compound 21446, N-(4-(5-(difluoromethyl)-1,3,4-oxadiazol-2-yl)benzyl)-N-(p-tolyl)thiomorpholine-4-carboxamide 1,1-dioxide]: the “HDAC6 selectivity (fold)” value was 115 fold and the IC50 turned out to be 87 nM.

`O=C(N1CCS(=O)(=O)CC1)N(Cc1ccc(-c2nnc(C(F)(F)F)o2)cc1)c1ccccc1F` [Compound 21447, N-(2-fluorophenyl)-N-(4-(5-(trifluoromethyl)-1,3,4-oxadiazol-2-yl)benzyl)thiomorpholine-4-carboxamide 1,1-dioxide]: the “HDAC6 selectivity (fold)” value was found to be 196 fold and the IC50 was found to be 51 nM.
